Results from patent publication US10231980B2, “Cortexolone 17alpha-benzoate for use in the treatment of tumours” (COSMO TECHNOLOGIES LTD., priority 2014, dated 2019).
pIC50: −log10 of the molar value. Read-outs that look alike come from different tables or passages of the source.

How the values were obtained:
HT29 = test: MTT colorimetric assay on epithelial intestinal cancer cells; assay type: cell-based; conditions: for pIC50: Homo sapiens, HT-29, HT29
Protocol: The experiment was performed to test and define anticancer activity in vitro of Cortexolone 17α-benzoate and cortexolone 17α-valerate, 21-propionate on cell lines representatives of epithelial intestinal tumours, namely HT29. The experiment method consisted in: • 1. Monolayer HT-29 cells were plated in: 96-wells plates at the density of 2×10^4 cells/mL. The cells plated were kept at 37° C. in 5% CO2 and left to attach for 24 h. • 2. […] After 72 h of treatment, the MTT colorimetric assay was performed.

LNCaP = test: ATP-dependent cell viability assay (Cell Titer Glo), Example 12; conditions: for pIC50: Homo sapiens, LNCaP
Text: (§1) Data shown in Table I were fitted through sigmoidal dose response curves and analyzed using Prizm statistical.

MiaPaca2 = test: as above; conditions: human, 3 days
Text: as §1

PC3 = test: as above; conditions: for pIC50: Homo sapiens
Text: as §1

Panc1 = test: as above; conditions: human, 3 days
Text: as §1

MCF7 = test: In vitro proliferation / cytotoxic assay on breast cancer cells (Examples 14, 25); conditions: for effect on viability, in words: MCF7
Protocol: as §1
(§2) For the cytotoxic assay, cells were seeded in 96-well flat bottom culture plates in media containing charcoal stripped serum. After 24 hours, test compounds were added to the cells. DMSO was used as the vehicle negative control and RU486 as the positive control. After 72 hour incubation, cells were harvested and lysed to determine cell viability using the Cell Titer Glow assay.

[1] = test system: caspases 8, 9, 3/7 in MiaPaca2 cells; test: Caspase 8, 9 and 3/7 activity; assay type: cell-based
Protocol: To better analyze the phenomenon, the enzymatic activity of Caspase 8 (initiator caspase for Extrinsic Pathway) and Caspase 9 (initiator caspase for Intrinsic Pathway) and of Caspases 3 and 7 (effector caspases) were measured.
Gemcitabine (a known pancreatic cancer chemotherapeutic agent) and DMSO were used as positive and negative controls, respectively. There were three incubation time points: 8 hours, 24 hours, and 48 hours. After each time point, cells were lysed in multiplex buffer containing the caspase 3/7 substrate combined with either caspase 8 or caspase 9 reagents, which contain stable luciferase in proprietary buffers. The lysates were transferred to white opaque 96-well plates before measuring luminescence on a Tecan Safire instrument. Parallel plates treated identically were used to determine cell viability. All caspase activities were corrected for the number of viable cells.

7 cancer cell lines = test: Therapeutic index over a panel of cancer cell lines; assay type: cell-based; conditions: average over the cancer cell lines of Table VII
Protocol: The compound toxicity was determined as follow:
Therapeutic Index=Safety/Potency=IC50 stimulated PBMC/IC50 cancer cell

stimulated PBMC = test: IC50 on stimulated (actively dividing) PBMC; assay type: cell-based, human; conditions: PBMC Stim; Table IV
MDA-MB-231 = test: In vitro proliferation / cytotoxic assay on breast cancer cells (Examples 14, 25); assay type: cell-based; conditions: Homo sapiens; MDA-MB-231; at 100 μM; read-out: maximum inhibition of viability
Protocol: as §1, §2

CCCCC(=O)O[C@]1(C(=O)CO)CC[C@H]2[C@@H]3CCC4=CC(=O)CC[C@]4(C)[C@H]3CC[C@@]21C [CB-03-05, cortexolone 17α-valerate] was tested, and the pIC50 (HT29; Table III, read-out: in vitro proliferation IC50) was 4.46, the pIC50 (HT29; Table IV, read-out: In vitro proliferation IC50) was 4.46 and the “Therapeutic Index = IC50 resting PBMC/IC50 cancer cell” value (HT29; human, 72 h) was 4. For the same molecule, the “Therapeutic Index = IC50 stimulated PBMC/IC50 cancer cell” value (HT29; human, 72 h) was 4, the pIC50 (LNCaP) was 4.49 and the pIC50 (LNCaP; 72 h) was 4.49. The pIC50 (LNCaP; read-out: In vitro proliferation IC50) was 4.49, the pIC50 (LNCaP; read-out: in vitro proliferation IC50) was 4.49 and the “Therapeutic Index = IC50 resting PBMC/IC50 cancer cell” value (LNCaP; human, 3 days) was 4. For the same molecule, the “Therapeutic Index = IC50 stimulated PBMC/IC50 cancer cell” value (LNCaP; human, 3 days) was 4, the “Therapeutic Index = IC50 resting PBMC/IC50 cancer cell” value (MiaPaca2) was 2 and the “Therapeutic Index = IC50 stimulated PBMC/IC50 cancer cell” value (MiaPaca2) was 2. The pIC50 (PC3; PC-3, 72 h, PC3, Tables I and II, titrated 3 uM to 200 uM, 3 days) was 3.77, the pIC50 (PC3; PC-3, read-out: In vitro proliferation IC50, PC3, Table IV) was 3.77 and the pIC50 (PC3; PC-3, read-out: in vitro proliferation IC50, PC3, Table III) was 3.77. For the same molecule, the “Therapeutic Index = IC50 resting PBMC/IC50 cancer cell” value (PC3; human, 3 days) was 1, the “Therapeutic Index = IC50 stimulated PBMC/IC50 cancer cell” value (PC3; human, 3 days) was 1 and the “Therapeutic Index = IC50 resting PBMC/IC50 cancer cell” value (Panc1) was 2. For the same molecule, the “Therapeutic Index = IC50 stimulated PBMC/IC50 cancer cell” value (Panc1) was 2, the “effect on viability, in words” value (MCF7) was “only active in MCF7” and the “Therapeutic Index = IC50 resting PBMC/IC50 cancer cell” value (MCF7; human, 3 days) was 3. For the same molecule, the “Therapeutic Index = IC50 stimulated PBMC/IC50 cancer cell” value (MCF7; human, 3 days) was 3, the “profile for caspase activation” value [1] was “does not show a good profile for caspase activation” and the “Therapeutic Index = IC50 stimulated PBMC/IC50 cancer cell, AVERAGE” value (7 cancer cell lines) was 3. For the same molecule, the “Therapeutic Index = IC50 resting PBMC/IC50 cancer cell” value (stimulated PBMC) was 1.
In the case of CC#C[C@]1(O)CC[C@H]2[C@@H]3CCC4=CC(=O)CCC4=C3[C@@H](c3ccc(N(C)C)cc3)C[C@@]21C [RU486, Mifepristone, reference compound], the “effect on viability, in words” value (MCF7) was “does not affect”, the IC50 (MCF7; MCF7 (ER+PR+GR+/−), 72 hour, Table VI) was “Not active” and the cytotoxicity at 100 µM (MDA-MB-231) was 25%.
